# Reference: US20190352511A1, “LANTHANIDE COMPLEXES COMPRISING DENDRIMERS” (UNIVERSITE D'ORLEANS, priority 2017, published 2019)
# Key:
# [1] = system: HeLa cells; test: Cellular internalization by flow cytometry (NaN3 or 4° C. inhibition); type: cell-based, human; settings: 1.5 μM; for Cellular internalization, Active (percentage inhibited with NaN3): NaN3 treatment
# Description: HeLa cells were incubated for 30 min with a 1.5 μM concentration solution of chromophores and dendrimers (Ln8-)G3P-(Bodipy1)n (n=16, 32; Ln=Yb^3+, Nd^3+) as control. In order to block the active and passive transport pathways, HeLa cells were treated with NaN3 (active internalization inhibitor) or pre-incubated at 4° C. for 30 min (inhibition of active and passive pathways) before incubation with the dendrimers.
# Cytometry has been used to quantify cell internalization of dendrimers and to better understand signal intensity differences observed in confocal microscopy. The mechanisms of passive (non-dependent energy) and active (energy dependent) internalization of cells have been studied. Active transport was inhibited with sodium azide (NaN3), while incubation at 4° C. inhibited active and passive transport pathways by increasing the plasma membrane stiffness of HeLa cells (S. Vranic, N. Boggetto, V. Contremoulins, S. Mornet, N. Reinhardt, F. Marano, A. Baeza-Squiban, S. Boland, Deciphering the mechanisms of cellular uptake of nanoparticles by accurate evaluation of internalization for cytometry, Particle and Fiber Toxicology, 10 (2013) 1-16).
# However, for both types of dendrimers, internalization is consistently higher for those containing Yb^3+ than for those containing Nd^3+. […] For the chromophore compound 9, a relatively strong emission signal was observed and corresponding to 65% internalization of Yb8G3P-(Bodipy1)16. […] Dendrimers enter cells through active and passive transport pathways (FIG. 8). The relative percentages of active or passive internalization vary according to the number of Bodipy chromophore and the presence of Ln^3+. […] However, further studies are needed to clarify the exact mechanisms of active transportation. […]
# [2] = system: HeLa cells; test: Confocal fluorescence microscopy imaging; type: cell-based, human; settings: 30 min incubation, 1.5 μM, λex 633 nm (laser 6%), λem 650-800 nm
# Description: HeLa cells after 30 min of incubation with a solution of 1.5 μM compound 9 and dendrimer (Ln8-)G3P-(Bodipy1)n (n=16, 32; Ln=Yb^3+, Nd^3+). The emission of aza-BODIPY (λex: 633 nm, λem: 650-800 nm) was observed under excitation at 633 nm (laser power at 6%). (Top) Yb8-G3P-(Bodipy1)16 (A), Nd8-G3P-(Bodipy1)16 (B), G3P-(Bodipy1)16 (C), Compound 9 (D) and (bottom) Yb8-G3P-(Bodipy1)32 (A), Nd8-G3P-(Bodipy1)32 (B), G3P-(Bodipy1)32 (C), untreated cells (D). The images are taken in the plane of the cellular nucleus. The white arrows indicate the specific localization of the dendrimers in the lysosomes and the yellow arrows indicate the filopods. 63× magnification lens.
# Confocal microscopy experiments were performed to confirm the intracellular localization of the dendrimers (FIG. 7). For this purpose, HeLa cells were incubated for 30 min with a concentration solution of 1.5 μM, which corresponds to ˜89-100% of cell viability. The fluorescence of the dendrimers was observed using a 633 nm laser as the excitation source and the emission of aza-BODIPY was collected between 650 and 800 nm with an optical cut of 1 μm in the z axis. The same laser power was used for the different experiments to compare the signal intensity variations between different dendrimers.
# [3] = Absolute quantum yields (Q) in DMSO solution; type: physicochemical
# Description: The absolute quantum yields of the chromophore (compound 9) and dendrimers (Ln8-)G3P-(Bodipy1)n (n=16, 32; Ln=Yb^3+, Nd^3+) are summarized in Table 1. Significant decreases (6 and 3.4 times) in quantum emission efficiencies from the aza-BODIPY-COOH chromophoric moieties for the functionalized dendrimers, G3P-(aza-BODIPY)32 and G3P-(aza-BODIPY)16, respectively. […] On the other hand, the Q values are increased by 1.7 and 1.4 times for G3P-(Bodipy1)32 during the encapsulation of the lanthanide cations Yb^3+ and Nd^3+, respectively.
# [4] = system: HeLa cells; test: Alamar Blue cytotoxicity test; type: cell-based, human; settings: up to 2 μM, 24 h incubation
# Description: In order to determine the potential toxicity of the described dendrimers, an Alamar Blue test was performed on the HeLa […] carcinoma human cell line (FIG. 6). Different concentrations of chromophores (compound 9) and dendrimers (Ln8-)G3P-(Bodipy1)n (n=16, 32; Ln=Yb^3+, Nd^3+) were tested.
# [5] = Photobleaching / photostability under continuous illumination; type: physicochemical; settings: 10 μM in DMSO, uninterrupted illumination at 670 nm for 3 h, emission at 735 nm
# Description: The experiments were carried out for a solution at 10 μM in DMSO and under uninterrupted illumination at 670 nm, the emission being collected at 735 nm.
# To test the photostability of the system, the chromophore (compound 9) and the dendrimers (Ln8-)G3P-(Bodipy1)n (n=16, 32; Ln =Yb^3+, Nd^3+) were continuously illuminated with 670 […]. nm and the emission signal was monitored at 735 nm. […] However, the photostability of G3P-(Bodipy1)16 could be improved by the incorporation of Ln^3+. In addition, it turned out to be dependent on the nature of the lanthanides. […] As for the initial chromophore, compound 9 (FIG. 5) loses 75% of its luminescence intensity after 3 hours of illumination. Therefore, in general, the attachment of the chromophore moieties to the dendrimer structure and the presence of Ln^3+ can be advantageously used to provide and enhance the photostability of the probe.
# The continuous illumination of G3P-(Alkyne)x-(Cyanine)y (x=22-24, y=8-10) with a light centered at 665 nm makes it possible to estimate the photostability of the dendrimers which appears to be rather weak. (FIG. 11).
# [6] = Absorption spectra; type: physicochemical; settings: DMSO, low energy main band at 672 nm
# Description: For the sake of comparison, the absorption spectrum of compound 9 is multiplied by a factor corresponding to the number of chromophores attached to the branches of the dendrimer, for example, by 16 for (Ln8-) G3P-(Bodipy1)16 and by 32 for (Ln8-) G3P-(Bodipy1)32.
# The absorption spectrum of the Bodipy chromophore (compound 9) measured in a DMSO solution has a broad band of up to 770 nm with a low energy main band at 672 nm (ϵ=2.1.10^5 M^−1 cm^−1), FIG. 3). […] On the other hand, the molar coefficient of absorption increases with the number of Bodipy chromophore units attached.
# Absorption spectra of the Yb8-G3P-(TPP)32 complex were recorded in DMSO and in the DMSO/(Opti-MEM/FCS, 6: 94%) mixture (FIG. 13).
smiles,measurement,setting,value
"COc1ccc(-c2cc(-c3ccccc3)n(B(F)F)c2/N=C2\N=C(c3ccccc3)C=C2c2ccc(OCC(=O)O)cc2)cc1 [Compound 9, (Z)-2-(4-(2((1-(difluoroboryl)-3-(4-methoxyphenyl)-5-phenyl-1H-pyrrol-2-yl)imino)-5-phenyl-2H-pyrrol-3-yl)phenoxy)acetic acid]","Cellular internalization, Passive",[1]; difference between internalization inhibited at 4° C. and inhibited with sodium azide,81 ± 1%
same,internalization relative to Yb8G3P-(Bodipy1)16,[1]; 30 min incubation,65%
same,"Cellular internalization, Active (percentage inhibited with NaN3)",[1]; 30 min incubation,19%
same,"Cellular internalization, Active (percentage inhibited with NaN3)","[1]; 30 min incubation, listed as Composé{acute over ( )}9, 1.5 µM",18 ± 4%
same,intracellular emission signal intensity (confocal),[2],signal of lower intensity
same,quantum yield ratio versus Yb8-G3P-(aza-BODIPY)16,[3],3.4 times
same,Q (%) quantum yield,"[3]; 10 μM in DMSO, room temperature, excitation 650 nm, emission collected 660 to 850 nm",8.04(8) %
same,cell viability,[4],~100%
same,decrease of initial luminescence intensity,[5],75%
same,molar absorption coefficient ϵ,[6],2.1.10^5 M^−1 cm^−1
